Patent US8999983B2, “Modulators of Hec1 activity and methods therefor” (Taivex Therapeutics Corporation, priority 2011, dated 2015)

What was measured:
BT474 xenograft = experiment: Mouse xenograft study, BT474 breast cancer; format: in vivo, nude mice
Procedure: (§1) Mouse Xenograft Studies: Xenograft studies adapted from a previous published protocol (Wu et al, Cancer Res. 2008 Oct. 15; 68(20):8393-9). Female BALB/c nude (nu/nu) mice (5-8 weeks) were obtained from Lasco (Industrial Park, Tai-Ping Area, Taichung City, Taiwan). The animals were maintained under specific pathogen-free conditions, and food and water were supplied ad libitum. Housing and all procedures involving animals were performed according to protocols approved by the IACUC in DCB. Nude mice were inoculated with 17-β-estradiol pellets 72 to 96 h before implantation of BT-474 cells. For subcutaneous implantation of BT-474 cells, cells (1×10^7 in matrix gel/animal) were injected subcutaneously into the right subaxillary region. Treatment started when average tumor volume reached about 200 mm^3; mice were treated (p.o., QD/28 cycles in total) with vehicle A (0.5% methylcellulose), or candidate compounds formulated in vehicle A (10-50 mg/kg body weight). Perpendicular diameter measurement of each tumor were made with digital calipers and the volume of the tumor calculated using formula (L×W×W)/2, in which L and W represent the length and the width, respectively. Body weights were measured three times weekly.
(§2) The in vivo effectiveness of contemplated compounds in the reduction of tumor volume in nude mice is readily apparent.
(§3) Development of resistance to treatment in advanced stage tumors is a well known phenomenon. Activity of select Hec1 inhibitor in such late stage tumors was determined by re-dosing of BT474 xenografted animals that had previously subjected to 35 days of treatment with 110095 (compound 27 of Table 1). Re-treatment with 110095 was starting on day 42 and continued for 21 days.

Nek2 protein = experiment: Immunoblot of Nek2 protein level in K562 cells; format: cell-based; conditions: 1 μM, up to 24 hrs
Procedure: Immunoblot Analysis: For immunoblotting experiments, cells were plated in a 6-well culture plate and cultured overnight. Cells were incubated with the test compounds for the indicated time and whole cell lysate was harvested by adding 1×SDS-PAGE Sample Buffer (62.5 mM Tris-HCl (pH 6.8 at 25° C.), 2% w/v SDS, 10% glycerol, 50 mM DTT, and 0.01% w/v bromophenol blue or phenol red). Proteins were separated by SDS-PAGE electrophoresis and transferred to PVDF membrane. Protein expression was immunoblotted using various primary antibodies and detected using Immobilon Western Chemiluminescent HRP Substrate (Millipore, Billerica Mass. 01821 USA). Antibodies used include anti-Cleaved Caspase3, (Rabbit, Cell Signaling Technology, Danvers Mass. 01923 USA); anti-PARP (Rabbit, Cell Signaling Technology, Danvers Mass. 01923 USA); anti-MCL-1 (mouse, BD Biosciences, San Jose Calif. 95131 USA); anti-XIAP (rabbit, Cell Signaling Technology, Danvers Mass. 01923 USA); anti-Bcl-2 (mouse, Santa Cruz Biotechnology, Santa Cruz Calif. 95060); anti-Cyclin BI (mouse, BD Biosciences, San Jose Calif. 95131 USA); anti-Cyclin D1 (mouse, Santa Cruz Biotechnology, Santa Cruz Calif. 95060); Anti-Nek2 (mouse, BD Biosciences, San Jose Calif. 95131 USA); Anti-HEC1, (rabbit, GeneTex, Inc., Irvine Calif. 92606 USA); and anti-actin (mouse, Millipore, Billerica Mass. 01821 USA). […]

[1] = Body weight in mouse xenograft studies; format: in vivo, nude mice
Procedure: as §1, §2, §3

[2] = system: caspase-3, PARP, Mcl-1 and XIAP; experiment: Immunoblot of apoptotic pathway proteins; format: cell-based; conditions: 1 μM, 24 or 48 hours
Procedure: Immunoblot Analysis: For immunoblotting experiments, cells were plated in a 6-well culture plate and cultured overnight. Cells were incubated with the test compounds for the indicated time and whole cell lysate was harvested by adding 1×SDS-PAGE Sample Buffer (62.5 mM Tris-HCl (pH 6.8 at 25° C.), 2% w/v SDS, 10% glycerol, 50 mM DTT, and 0.01% w/v bromophenol blue or phenol red). Proteins were separated by SDS-PAGE electrophoresis and transferred to PVDF membrane. Protein expression was immunoblotted using various primary antibodies and detected using Immobilon Western Chemiluminescent HRP Substrate (Millipore, Billerica Mass. 01821 USA). Antibodies used include anti-Cleaved Caspase3, (Rabbit, Cell Signaling Technology, Danvers Mass. 01923 USA); anti-PARP (Rabbit, Cell Signaling Technology, Danvers Mass. 01923 USA); anti-MCL-1 (mouse, BD Biosciences, San Jose Calif. 95131 USA); anti-XIAP (rabbit, Cell Signaling Technology, Danvers Mass. 01923 USA); anti-Bcl-2 (mouse, Santa Cruz Biotechnology, Santa Cruz Calif. 95060); anti-Cyclin BI (mouse, BD Biosciences, San Jose Calif. 95131 USA); anti-Cyclin D1 (mouse, Santa Cruz Biotechnology, Santa Cruz Calif. 95060); Anti-Nek2 (mouse, BD Biosciences, San Jose Calif. 95131 USA); Anti-HEC1, (rabbit, GeneTex, Inc., Irvine Calif. 92606 USA); and anti-actin (mouse, Millipore, Billerica Mass. 01821 USA).
100 nM Taxol was used as a positive control drug for apoptosis.

HeLa cell = experiment: Immunostaining and microscopy, metaphase chromosomal misalignment; format: cell-based; conditions: compared to control (DMSO)
Procedure: Immunostaining and Microscopy: Cells were grown on polylysine-coated coverslips. Cells were gently washed with BRB80 buffer (80 mM piperazine-N,N′-bis(2-ethanesulfonic acid) (PIPES) pH 6.8, 5 mM EGTA, 1 mM MgCl2) before fixation with cold 100% methanol or 4% paraformaldehyde in BRB80 or phosphate-buffered saline (PBS). Following permeabilization with 0.4% Triton X-100, cells were blocked with 2% bovine serum albumin (BSA) in PBS and then incubated with anti-α-Tubulin antibodies (mouse, FITC Conjugate; Sigma Aldrich, St. Louis Mo. USA) diluted in 2% BSA in PBS. DAPI (4′,6′-diamidino-2-phenylindole) staining was applied after secondary antibody incubation, and cells were mounted on cover slides with Prolong gold antifade reagent (Life Technologies, Carlsbad Calif. USA 92008). Images were captured with a Zeiss Axioplan 2 microscope equipped with a deconvolution module or with a Zeiss LSM-510 META laser scanning confocal microscope (Carl Zeiss Microscopy, Thomwood N.Y. 10594 USA).
After fixation, cells are stained with anti-tubulin antibody and DAPI to stain for microtubules and DNA, respectively, and imaged. […] Fluorescent images were taken of the cells and the percentage of cells with metaphase misalignment were counted and recorded.

Q: Which xenograft tumor outgrowth (BT474 xenograft; BT474 breast cancer xenograft, nude mice) does the source give for `COCCOc1cnc(Sc2cc(C)c(-c3csc(NC(=O)c4ccncc4)n3)c(C)c2)cn1` [Compound 27, N-(4-{4-(5-(2-methoxyethoxy)pyrazin-2-ylthio)-2,6-dimethylphenyl}thiazol-2-yl)isonicotinamide] here?
A: inhibition of xenograft tumor outgrowth

Q: And the “activity in late stage tumors on re-treatment” value (BT474 xenograft; BT474 xenografted animals after 35 days of treatment, re-treatment from day 42 for 21 days)?
A: remained effective with late stage tumors

Q: And the Nek2 protein level (Nek2 protein)?
A: induced a reduction of Nek2 protein levels

Q: What about the body weight ([1]; re-treatment of late stage xenografts) of the same compound?
A: body weight remained constant

Q: And the body weight ([1]; xenograft studies FIG. 7A-7D, nude mice)?
A: body weight remained constant

Q: What about the “levels of apoptotic (caspase-3, PARP) and anti-apoptotic (Mcl-1, XIAP) proteins” value [2] of the same compound?
A: cleavage of the apoptotic proteins accompanied by down-regulation of the anti-apoptotic proteins

Q: And the “number of cells with metaphase misalignment” value (HeLa cell)?
A: time-dependent increase in the number of cells with metaphase misalignment
